System: Hair follicles
Experiment: Activity of actives on hair follicle growth (cultured scalp hair follicles, elongation by image analysis)
Type: cell-based
Conditions: for Growth: average elongation as percentage of control group (=100), 6 days of cultivation (5 of treatment)
Protocol: Hair follicles were taken from a single donor's scalp sample and transferred in sterile 24 well plates to be cultivated by using a modified Williams' Medium E. Cultivation took place for six days, while the experimental treatment of the follicles started 24 hours from the beginning of the cultivation. Hair follicles were selected for the experiments after 18 h of cultivation. Only those follicles showing a good vital stage and a growth of not less than 0.2 mm were considered suitable to be maintained in culture. All experimental groups and the control were prepared comprising 12 to 18 follicles, plated in 24-well plates at a density of 3 hair follicles/well. The hair follicles showing evident signs of sufferance during the culture for reasons not dependent on the experimental treatment were excluded from the final analysis.
The treatments consisted of mOKG concentrations varying from 0.001 to 0.1% b.w.
The growth performances observed in the treated hair follicles were compared to a control group cultured in the same culture medium free from OMG.
The experiment was terminated after 6 days of cultivation (5 of treatment). The growth of the hair follicles was studied by microphotography and subsequently determined by image analysis.
The average elongation detected in the experimental groups was expressed as percentage value of the growth performed by the control group. The statistical significance of the effects produced by the treatments was evaluated by means of analysis of variance (ANOVA) according the Duncan's method.

[1] = Conc. 0.001% b.w. in culture medium
[2] = Conc. 0.01% b.w. in culture medium
[3] = Conc. 0.1% b.w. in culture medium

Row | Compound | Growth [1] [%] | Growth [2] [%] | Growth [3] [%] | Factor between effective concentrations (mOKG 0.001% b.w. vs OKG 0.1% b.w.) (mOKG significantly effective at 0.001% b.w. as OKG at 0.1% b.w.)
1 | NCCC[C@H](N)C(=O)O.O=C(O)CCC(=O)C(=O)O [Mono Ornithine Ketoglutarate, Mono-Ornithine (alpha-) ketoglutarate] | 112 | 120 | 122 | 100
2 | Di Ornithine Ketoglutarate | 101 | 107 | 116 | 
3 | Cl.NCCC[C@H](N)C(=O)O [Ornithine hydrochloride] | 100 | 102 | 106 | 
4 | O=C(O)CCC(=O)C(=O)O [Alpha-ketoglutarate] | 101 | 103 | 104 | 

Source: US20160250121A1, “USE OF MONO ORNITHINE KETOGLUTARATE (MOKG)” (L'OREAL, priority 2013, published 2016)
